# Molecular target: T1, PDE1A (Homo sapiens, UniProt P54750)
# T1 construct: purchased SignalChem
# Assay: In vitro detection of phosphodiesterase (PDE): PDE1A enzyme activity by fluorescence polarization immunoassay
# Format: biochemical
# Conditions: human-derived enzyme, cAMP or cGMP substrate; read-out: IC50s for PDE1
# Method: Test 1: In Vitro Detection of Phosphodiesterase (PDE)
# the enzyme activity of PDE1A was determined by detecting the production of AMP/GMP by fluorescence polarization immunoassay, wherein AlexaFluor 633 labeled AMP/GMP was used to replace AMP/GMP to bind with the antibody.
# Reaction buffer: 10 mM Tris-HCl, pH 7.5, 5 mM magnesium chloride, 0.01% Brij 35, 1 mM DTT and 1% DMSO;
# Enzyme substrate: […] cAMP or cGMP (Ca^2+-calmodulin acts as a cofactor of PDE1A)
# Detection reagent: Transcreener® AMP2/GMP2 antibody; AMP2/GMP2 AlexaFluor 633 tracer.
# Experimental Procedure and Method:
# 1. Human-derived enzyme (commercially available from SignalChem) to be tested and substrate were diluted with freshly prepared reaction buffer;
# 2. The enzyme solution (with a concentration of 3 pM) was added to the holes of the microplates;
# 3. A series of solutions of the compounds in 100% DMSO (with the desired concentrations) were added to the holes containing the enzyme solution by Echo550, and then the microplates were incubated for 10 minutes at room temperature;
# 4. The substrate solution was added to the holes containing the enzyme and compounds to start the reaction;
# 5. The microplates were incubated for 1 hour under room temperature and vibration;
# 6. The detection mixture (tracer and antibody in stop buffer) was added to stop the enzyme reaction, and the microplates were incubated for 90 minutes under vibration;
# 7. The equipment EnVision (PerkinElmer), Cy5 FP Ex FP 620, Em S-pol 688/P-pol 688, FP mirror D658fp/D688 was used to detect the reaction mixture, and Ex/Em 620/688 was used to detect the fluorescence polarization.
# In the Excel table, the enzyme activity corresponding to the FP signal was found on the AMP/GMP standard curve by reference to the DMSO negative control, and then was converted to product concentration (nM). GraphPad Prism was used to analyze and calculate the IC50 values.
row,IC50,Compound
1,> 100 µM,"CC[C@@]12C=C(c3nc(-c4ccccc4)no3)n3c4c(c5ccccc53)CCN(CCC1)[C@H]42 [Example 30, 5-((4^1S,13aS)-13a-ethyl-2,3,4^1,5,6,13a-hexahydro-1H-indolo[3,2,1-de]pyrido[3,2,1-ij][1,5]naphthyridin-12-yl)-3-phenyl-1,2,4-oxadiazole]"
2,1 to 20 µM,"CC[C@@]12C=C(c3cnc(C)c(C)n3)n3c4c(c5ccccc53)CCN(CCC1)[C@H]42 [Example 14, (4^1S,13aS)-12-(5,6-dimethylpyrazin-2-yl)-13a-ethyl-2,3,4^1,5,6,13a-hexahydro-1H-indolo[3,2,1-de]pyrido[3,2,1-ij][1,5]naphthyridine]"
3,1 to 20 µM,"CC[C@@]12C=C(c3nc(C(C)(C)O)no3)n3c4c(c5ccccc53)CCN(CCC1)[C@H]42 [Example 37, 2-(5-((4^1S,13aS)-13a-ethyl-2,3,4^1,5,6,13a-hexahydro-1H-indolo[3,2,1-de]pyrido[3,2,1-ij][1,5]naphthyridin-12-yl)-1,2,4-oxadiazol-3-yl)-propan-2-ol]"
4,≤ 1 µM,"CC[C@@]12C=C(c3nc4c(o3)CCOC4)n3c4c(c5ccccc53)CCN(CCC1)[C@H]42 [Example 66, 2-((4^1S,13aS)-13a-ethyl-2,3,4^1,5,6,13a-hexahydro-1H-indolo[3,2,1-de]pyrido[3,2,1-ij][1,5]naphthyridin-12-yl)-6,7-dihydro-4H-pyrano[3,4-d]oxazole]"
5,> 100 µM,"CC[C@@]12C=C(c3noc(=O)[nH]3)n3c4c(c5ccccc53)CCN(CCC1)[C@H]42 [Example 18, 3-((4^1S,13aS)-13a-ethyl-2,3,4^1,5,6,13a-hexahydro-1H-indolo[3,2,1-de]pyrido[3,2,1-ij][1,5]naphthyridin-12-yl)-1,2,4-oxadiazol-5 (4H)-one]"
6,≤ 1 µM,"CC[C@@]12C=C(c3nc(C)c(C#N)o3)n3c4c(c5ccccc53)CCN(CCC1)[C@H]42 [Example 63, 2-((4^1S,13aS)-13a-ethyl-2,3,4^1,5,6,13a-hexahydro-1H-indolo[3,2,1-de]pyrido[3,2,1-ij][1,5]naphthyridin-12-yl)-4-methyloxazole-5-carbonitrile]"
7,20 to 100 µM,"CC[C@@]12C=C(c3nc(C(F)F)no3)n3c4c(c5ccccc53)CCN(CCC1)[C@H]42 [Example 36, 3-Difluoromethyl-5-((4^1S,13aS)-13a-ethyl-2,3,4^1,5,6,13a-hexahydro-1H-indolo[3,2,1-de]pyrido[3,2,1-ij][1,5]naphthyridin-12-yl)-1,2,4-oxadiazole]"
8,1 to 20 µM,"CC[C@@]12C=C(c3cncc(C)n3)n3c4c(c5ccccc53)CCN(CCC1)[C@H]42 [Example 10, (4^1S,13aS)-13a-ethyl-12-(6-methylpyrazin-2-yl)-2,3,4^1,5,6,13a-hexahydro-1H-indolo[3,2,1-de]pyrido[3,2,1-ij][1,5]naphthyridine]"
9,≤ 1 µM,"CC[C@@]12C=C(c3nc(C(C)C)c(C)o3)n3c4c(c5ccccc53)CCN(CCC1)[C@H]42 [Example 57, 2-((4^1S,13aS)-13a-ethyl-2,3,4^1,5,6,13a-hexahydro-1H-indolo[3,2,1-de]pyrido[3,2,1-ij][1,5]naphthyridin-12-yl)-4-isopropyl-5-methyloxazole]"
10,≤ 1 µM,"CC[C@@]12C=C(c3nc(C)c(C)o3)n3c4c(c5ccc(S(=O)(=O)NC)cc53)CCN(CCC1)[C@H]42 [Example 68, (4^1S,13aS)-12-(4,5-dimethyloxazol-2-yl)-13a-ethyl-N-methyl-2,3,4^1,5,6,13a-hexahydro-1H-indolo[3,2,1-de]pyrido[3,2,1-ij][1,5]naphthyridin-9-sulfonamide]"
11,1 to 20 µM,"CC[C@@]12C=C(c3cccc(C)n3)n3c4c(c5ccccc53)CCN(CCC1)[C@H]42 [Example 12, (4^1S,13aS)-13a-ethyl-12-(6-methylpyridin-2-yl)-2,3,4^1,5,6,13a-hexahydro-1H-indolo[3,2,1-de]pyrido[3,2,1-ij][1,5]naphthyridine]"

# The remaining lines, values behind:
row,Compound,IC50
1,"CCc1oc(C2=C[C@]3(CC)CCCN4CCc5c(n2c2ccccc52)[C@@H]43)nc1C [Example 53, 5-ethyl-2-((4^1S,13aS)-13a-ethyl-2,3,4^1,5,6,13a-hexahydro-1H-indolo[3,2,1-de]pyrido[3,2,1-ij][1,5]naphthyridin-12-yl)-4-methyloxazole]",≤ 1 µM
2,"CC[C@@]12C=C(c3nc(C)c(C4CC4)o3)n3c4c(c5ccccc53)CCN(CCC1)[C@H]42 [Example 58, 5-cyclopropyl-2-((4^1S,13aS)-13a-ethyl-2,3,4^1,5,6,13a-hexahydro-1H-indolo[3,2,1-de]pyrido[3,2,1-ij][1,5]naphthyridin-12-yl)-4-methyloxazole]",≤ 1 µM
3,"CC[C@@]12C=C(c3nc(C)c(C)o3)n3c4c(c5c(S(=O)(=O)N(C)C)cccc53)CCN(CCC1)[C@H]42 [Example 74, (4^1S,13aS)-12-(4,5-dimethyloxazol-2-yl)-13a-ethyl-N,N-dimethyl-2,3,4^1,5,6,13a-hexahydro-1H-indolo[3,2,1-de]pyrido[3,2,1-ij][1,5]naphthyridin-7-sulfonamide]",1 to 20 µM
4,"CC[C@@]12C=C(c3ccno3)n3c4c(c5ccccc53)CCN(CCC1)[C@H]42 [Example 45, 5-((4^1S,13aS)-13a-ethyl-2,3,4^1,5,6,13a-hexahydro-1H-indolo[3,2,1-de]pyrido[3,2,1-ij][1,5]naphthyridin-12-yl)isoxazole]",20 to 100 µM
5,"CC[C@@]12C=C(c3ccccn3)n3c4c(c5ccccc53)CCN(CCC1)[C@H]42 [Example 11, (4^1S,13aS)-13a-ethyl-12-(pyridin-2-yl)-2,3,4^1,5,6,13a-hexahydro-1H-indolo[3,2,1-de]pyrid o[3,2,1-ij][1,5]naphthyridine]",20 to 100 µM
6,"CC[C@@]12C=C(c3nc(C)c(C)s3)n3c4c(c5ccccc53)CCN(CCC1)[C@H]42 [Example 40, 2-((4^1S,13aS)-13a-ethyl-2,3,4^1,5,6,13a-hexahydro-1H-indolo[3,2,1-de]pyrido[3,2,1-ij][1,5]naphthyridin-12-yl)-4,5-dimethylthiazole]",1 to 20 µM
7,"CC[C@@]12C=C(c3nc(C)c(C)o3)n3c4c(c5ccc(S(=O)(=O)NCCCOC)cc53)CCN(CCC1)[C@H]42 [Example 70, (4^1S,13aS)-12-(4,5-dimethyloxazol-2-yl)-13a-ethyl-N-(3-methoxylpropyl)-2,3,4^1,5,6,13a-hexahydro-1H-indolo[3,2,1-de]pyrido[3,2,1-ij][1,5]naphthyridin-9-sulfonamide]",≤ 1 µM
8,"CC[C@@]12C=C(c3nc(C)c(C)o3)n3c4c(c5c(S(=O)(=O)NCCCOC)cccc53)CCN(CCC1)[C@H]42 [Example 75, (4^1S,13aS)-12-(4,5-dimethyloxazol-2-yl)-13a-ethyl-N-(3-methoxylpropyl)-2,3,4^1,5,6,13a-hexahydro-1H-indolo[3,2,1-de]pyrido[3,2,1-ij][1,5]naphthyridin-7-sulfonamide]",20 to 100 µM
9,"CC[C@@]12C=C(c3nc(C)c(C)o3)n3c4c(c5ccccc53)CCN(CCC1)[C@H]42 [Example 52, 2-((4^1S,13aS)-13a-ethyl-2,3,4^1,5,6,13a-hexahydro-1H-indolo[3,2,1-de]pyrido[3,2,1-ij][1,5]naphthyridin-12-yl)-4,5-dimethyloxazole]",≤ 1 µM
10,"CC[C@@]12C=C(c3nsc(=O)[nH]3)n3c4c(c5ccccc53)CCN(CCC1)[C@H]42 [Example 19, 3-((4^1S,13aS)-13a-ethyl-2,3,4^1,5,6,13a-hexahydro-1H-indolo[3,2,1-de]pyrido[3,2,1-ij][1,5]naphthyridin-12-yl)-1,2,4-thiadiazol-5(4H)-one]",> 100 µM

# From US10017507B2, “Diaza-benzofluoranthrene compounds” (HARBIN PHARMACEUTICAL GROUP CO., LTD. GENERAL …, priority 2015, dated 2018)
